Experiment: slurry experiment on stability of the crystal form (XRPD)
Conditions: 30 minutes

| SMILES | remaining in the anhydrous state during the measurement by XRPD |
| --- | --- |
| C[C@@H](c1ccc(-c2ccn(C)c(=O)c2)cc1)N1CC[C@](CC(C)(C)O)(c2ccccc2)OC1=O [anhydrous form of Example 48, (S)-6-(2-hydroxy-2-methylpropyl)-3-((S)-1-(4-(1-methyl-2-oxo-1,2-dihydropyridin-4-yl)phenyl)ethyl)-6-phenyl-1,3-oxazinan-2-one] | did not remain in the anhydrous state |
| C[C@@H](c1ccc(-c2ccn(C3CC3)c(=O)c2)cc1)N1CC[C@](CC(C)(C)O)(c2ccccc2)OC1=O [anhydrous form of Example 75, 3-{(S)-1-[4-(1-Cyclopropyl-2-oxo-1,2-dihydro-pyridin-4-yl)-phenyl]-ethyl}-(S)-6-(2-hydroxy-2-methyl-propyl)-6-phenyl-[1,3]oxazinan-2-one] | did not remain in the anhydrous state |

From patent publication US8575157B2, “Cyclic inhibitors of 11beta-hydroxysteroid dehydrogenase 1” (Vitae Pharmaceuticals, Inc., priority 2010, dated 2013)
